Data taken from patent US20220315567A1 (priority 2016, published 2022).
Where two headings read alike, the source gives them in different places.

How the values were obtained:
[1] = patients following bunionectomy; cited from earlier work
[2] = healthy volunteers; cited from earlier work
[3] = target: T1, human OPRM1 (μ, MOR) (Homo sapiens, UniProt P35372); assay: cell-based; settings: for Emax: OPRM1, read-out: cAMP Emax; for EC50: PathHunter human OPRM1 Arrestin CHO-K1 cell line, read-out: cAMP EC50
T1 construct: host or cells: CHO-K1
T1 sequence (P35372 whole entry): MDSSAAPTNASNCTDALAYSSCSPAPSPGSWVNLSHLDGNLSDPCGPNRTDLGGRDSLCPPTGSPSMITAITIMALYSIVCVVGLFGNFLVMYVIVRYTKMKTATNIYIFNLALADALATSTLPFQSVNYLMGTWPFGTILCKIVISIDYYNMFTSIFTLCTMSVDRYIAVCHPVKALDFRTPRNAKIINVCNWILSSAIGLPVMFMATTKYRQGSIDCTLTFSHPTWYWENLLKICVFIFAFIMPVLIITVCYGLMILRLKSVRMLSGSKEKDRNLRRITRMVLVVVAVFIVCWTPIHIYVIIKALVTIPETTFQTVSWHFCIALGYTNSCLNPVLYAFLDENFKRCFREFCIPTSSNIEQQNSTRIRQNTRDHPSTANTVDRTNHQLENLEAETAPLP
Experimental: G-protein signaling was measured via second messenger cAMP modulation. Detection of cAMP modulation was accomplished in the PathHunter human OPRM1 (μ, MOR) Arrestin CHO-K1 cell line using the Dynamic2 cAMP Kit from Cisbio.

[4] = target: T1, human OPRM1 (μ, MOR); assay: cell-based; settings: for Emax: OPRM1, read-out: β-Arrestin Emax; for EC50: PathHunter human OPRM1 Arrestin CHO-K1 cell line, read-out: β-Arrestin EC50
Procedure, shortened: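 β-Arrestin-2 recruitment was measured in PathHunter CHO-K1 cells expressing ED-tagged human OPRM1 and EA-fused arrestin. Agonist-driven recruitment restores β-galactosidase activity by enzyme fragment complementation, read by chemiluminescence.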

[5] = target: T1, human OPRM1 (μ, MOR); type: cell-based; settings: for ΔRA of compound: relative activity from EC50 and Emax of β-arrestin vs cAMP, lower RA = more G-protein biased
Procedure, shortened: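 Activity measured in cell assays for G-protein signaling and for β-arrestin recruitment. A relative activity (RA) value was derived by comparing the two readouts, taking both EC50 and Emax into account.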

SMILES | level of analgesia [1] | on-target adverse effects (nausea, decrease in respiratory drive) [2] | Emax [3] | EC50 [3] | Emax [4] | EC50 [4] | Bias Factor (ΔRA of compound relative to ΔRA of DAMGO) × 10 [5] | ΔRA of compound [5] | melting point
COc1ccsc1CNCC[C@@]1(c2ccccn2)CCOC2(CCCC2)C1 [oliceridine, N-[(3-methoxythiophen-2-yl)methyl]-2-[(9R)-9-pyridin-2-yl-6-oxaspiro[4.5]decan-9-yl]ethanamine] | higher level of analgesia | decreased on-target adverse effects |  |  |  |  |  |  | 
CN(C)C(CNC(=O)N1Cc2cccc(C#N)c2C1)c1ccsc1 (stereo not drawn) [Compound 44] |  |  | 51.4% | 0.162 µM | 5.3% | > 100 µM | <−14.83 | <−2.96 | 159 to 161 °C
CN(C)C1(CNC(=O)N2Cc3ccccc3C2)CCCCC1 [Compound 54] |  |  | 113% | 0.396 µM | 20.8% | 4.42 µM | −3.04 | −1.78 | 225 to 227 °C
CN(C)C(C)(C)CNC(=O)N1Cc2ccc(F)cc2C1 [Compound 62] |  |  | 81.8% | 21 µM | < 1% | > 100 µM | <−14.83 | <−2.96 | 200 to 202 °C
CN(C)C1(CNC(=O)N[C@H]2CCc3ccccc3C2)CCCCC1 [Compound 56] |  |  | 43.3% | 7.74 µM | < 1% | > 100 µM | <−14.83 | <−2.96 | 191 to 193 °C
